Test results reported in patent US10174015B2, “Substituted heterocyclic derivative, preparation method and use thereof” (Xiamen University, priority 2014, dated 2019).
Where two headings read alike, the source gives them in different places. Marks after values point to notes of the source that are not given here.

How the values were obtained:
[1] = system: adjuvant-induced arthritis rat models; experiment: Adjuvant-induced osteoarthritis pain, foot swelling degree; assay type: in vivo, rats; conditions: X ± S, n = 10, 10 mg/Kg
Method: Typical model for studying inflammatory pain medically was used to evaluate the therapeutic effects of compounds on inflammatory pain. 0.1 mL Freund's complete adjuvant was intradermally injected to toe of the left hind foot of the rats in each group to obtain adjuvant-induced arthritis rat models. Foot volume method was used to measure primary and secondary foot swelling degree (swelling degree=volume after inflammation−volume before inflammation), and polyarticular arthritis were scored (5 scoring grades: 0 represents no red swelling; 4 represents red swelling at all the paws including anklebone. The scores are accumulated according to the lesion degree of the rest three limbs not injected with adjuvant, and the highest score is 12). Before inflammation and at 6 h, 12 h, 18 h and 24 h after inflammation, Paw Volume Meter was used to measure the foot volume at the inflammatory side, and the swelling degree was calculated. The model can represent inflammatory pain including, but not only limited to: osteoarthritis pain and fibromyalgia syndrome, inflammatory pain of rheumatic and rheumatoid arthritis, inflammatory pain of endometriosis, inflammatory toothache, ankylosing spondylitis pain, and gouty arthritis pain.

SNI neuropathic pain = experiment: Neuropathic pain mouse model induced by spared nerve injury (SNI); assay type: in vivo, C57BL/6 mice; conditions: SNI mice, 10 mg/kg i.p. (gabapentin 100 mg/kg), 4 h after administration
Method: In the Experimental example, compounds to be evaluated or compounds to be tested or test compounds used are the Compounds 1-46 prepared in the Examples according to the invention. In the Experimental example, all the agents for injection, including compounds to be evaluated or compounds to be tested or test compounds, and positive control drug, were dissolved in a mixed solvent of PEG400:Tween 80:normal saline (at a volume ratio of 5:5:90), at a concentration of 5 mg/mL.
Neuropathic pain mouse model induced by spared nerve injury (SNI) is a common animal model for studying neuropathic pain medically. The invention uses the model to evaluate the therapeutic effects of the compounds on neuropathic pain, wherein the model can represent peripheral neuropathic pain including, but not limited to post-herpetic neuralgia, pain caused by diabetic perineuropathy, neurothlipsis and exudation caused by tumor, lumbar surgery failure syndrome, neuropathic pain caused by lumbar disc protrusion, postpartum neuralgia, trigeminal neuralgia, chemotherapy-induced multiple neuropathic pain, post-radiotherapy plexopathy, and radicular neuralgia.
C57BL/6 mice (purchased from Shanghai SLAC Laboratory Animal Co., Ltd) were anesthetized by intraperitoneal injection with pentobarbital sodium (40 mg/kg), and skin from knee joint to gluteal region was subjected to skin preparation and disinfection. After the mice were fixed, the knee joint part was cut about 1 cm longitudinally with bistoury, and muscle tissues were separated by blunt dissection to expose sciatic nerve. The tibial and common peroneal nerve branches of sciatic nerve stem were cut off carefully, and the cut was then stitched up. The mice was placed in a clean observation cage. In the sham-operation group, only sciatic nerve was exposed without cutting the tibial and common peroneal nerve branches. From the day before the experiment to 24 h after the operation, the plantar edges of the mice were stimulated everyday by […] (Ugo Basile Company (Italy), Product ID: 37450), and data was collected automatically to obtain the threshold value of mice to mechanical stimulation. […] The positive control drug gabapentin was administered at a dose of 100 mg/kg. All the agents to be injected were dissolved in a mixed solvent of PEG400:Tween 80:normal saline (at a volume ratio of 5:5:90), at a concentration of 5 mg/mL. By comparing the threshold values (the acting force of when the mouse retracting the paw) at different administration time in different administration groups, the compound was evaluated for its analgesic effect on neuropathic pain.

zebrafish embryos [2] = assay type: in vivo; conditions: for Death number (72 h): n = 30; for Body length (72 h) / Hatching number (72 h) / Heartbeat (72 h) / Unhatching number (72 h) / hatching rate: zebrafish, in vivo
Method: By the same method described above, zebrafish fertilized eggs were cultured. 7 Groups were set for each test compound, including 5 experimental groups relating to the test compound at different concentrations (solutions containing the test compound at different concentrations were prepared by using zebrafish embryo culture medium, wherein the concentrations were 100 mg/L, 10 mg/L, 1 mg/L, 0.1 mg/L, 0.01 mg/L), 1 solvent control group (DMSO) and 1 blank control group. The fertilized eggs were placed and cultured in a 28.5° C. incubator, a certain humidity was ensured in the culture environment. Culture medium containing a test compound was prepared, and the culture medium was added to a 96-well plate in advance, and each fertilized egg (by reference to the experimental method in OECD No. 212 document, fertilized eggs, which developed normally within 24 h after fertilization, were selected and subjected to exposure. Transparent fish eggs visible to naked eye were normally fertilized, while white fish eggs were dead and discarded. After the selection, the normally fertilized eggs had begun to divide as observed under microscope) was then independently placed in a different well, and cultured in the culture medium containing a test compound at a different concentration. Embryo development status at different stages were observed and photographed with invert microscope, including:
I. Morphological observation: the developmental states of fertilized eggs (yolk being coagulated or not, eye spot, pericardial sac being edematous or not, bloodstream being existing or not, tail development status, and the like) were observed and photographed at 48 h, 72 h, and 96 h;
II. Hatching number and death number were counted at 72 h after fertilization, and hatching rate and mortality were calculated;
III. Body length of the hatched young fishes at 72 h was measured (measured after photographing with invert microscope); […]
(§1) V. Heartbeat of young fishes (times/min) was recorded at 72 h and 96 h after fertilization (Recording method: heartbeat of young fishes could be clearly observed under microscope, and the number of heartbeats was recorded for 30 s).

zebrafish embryos [3] = assay type: in vivo; conditions: for Death number (72 h) / Hatching number (72 h) / Unhatching number (72 h): n = 30
Method: Fertilized eggs (donated by Zebrafish Research Group, School of Life Sciences, Xiamen University) were incubated in freshly prepared zebrafish embryo culture medium, which was replaced by fresh culture medium every day, and cultured in 28.5° C. incubator. Pure water was placed in the incubator to ensure a certain humidity in the culture environment. The formulation for zebrafish embryo culture medium was following: 5 mM NaCl, 0.17 mM KCl, 0.33 mM CaCl2, 0.33 mM MgSO4, 10-5% methylene blue. The culture medium was prepared with pure water. For example, NaCl: 292.2 mg, KCl: 12.68 mg, CaCl2: 36.63 mg, MgSO4: 39.72 mg, and methylene blue: 0.1 μL were needed for the preparation of 1 L culture medium.
7 Groups were set for each test compound, including 5 experimental groups relating to the test compound at different concentrations (solutions containing the test compound at different concentrations were prepared by using zebrafish embryo culture medium, wherein the concentrations were 10 mg/L, 3 mg/L, 1 mg/L, 0.3 mg/L, 0.1 mg/L), 1 solvent control group (DMSO) and 1 blank control group. The positive control drug was OTC analgesic ibuprofen at concentrations as described above. A 96-well cell culture plate was used to perform the experiment, three wells in parallel were used for each experimental group, and 10 fish eggs were contained in each well.
Culture medium containing a test compound was prepared, and the culture medium was added to a 96-well plate in advance, and each fertilized egg (by reference to the experimental method in OECD No. 212 document, fertilized eggs, which developed normally within 2 h after fertilization, were selected and subjected to exposure. Transparent fish eggs visible to naked eye were normally fertilized, while white fish eggs were dead and discarded. After the selection, the normally fertilized eggs had begun to divide as observed under microscope) was then independently placed in a different well, and cultured in the culture medium containing a test compound at a different concentration. Embryo development status at different stages was observed and photographed with invert microscope, including: […]
II. Hatching number and death number were counted at 72 h after fertilization, and hatching rate and mortality were calculated; […]
as §1

O=C(Cc1cccc(-c2ccccc2)c1)N1CCOC1=O [Compound 14, 3-Biphenylacetyl Oxazolidinone]
Foot swelling degree after inflammation ([1]; 6 h): 0.75 ± 0.11^c mL | Foot swelling degree after inflammation ([1]; 12 h): 1.06 ± 0.19^c mL | Foot swelling degree after inflammation ([1]; 18 h): 1.43 ± 0.25^b mL | Foot swelling degree after inflammation ([1]; 24 h): 1.36 ± 0.18^b mL

NCC1(CC(=O)O)CCCCC1 [gabapentin, reference compound]
effect of inhibiting central neuropathic pain (SNI neuropathic pain): disappeared gradually

CC(C)Cc1ccc(C(C)C(=O)O)cc1 (centres unmarked) [ibuprofen, reference compound]
Death number (72 h) (zebrafish embryos [2]; 0.01 mg/L): 0 | Death number (72 h) (zebrafish embryos [2]; 0.1 mg/L): 0 | Death number (72 h) (zebrafish embryos [2]; 1 mg/L): 2 | mortality (zebrafish embryos [2]; 10 mg/L, 72 h): 100% | Death number (72 h) (zebrafish embryos [2]; 10 mg/L): 30 | observation of zebrafish embryo development (zebrafish embryos [2]; 100 mg/L, 48 h): all the zebrafish embryos died | Death number (72 h) (zebrafish embryos [2]; 100 mg/L): 30 | Body length (72 h) (zebrafish embryos [2]; 72 h, 0.01 mg/L): 3.97 ± 0.06 mm | Hatching number (72 h) (zebrafish embryos [2]; 72 h, 0.01 mg/L): 25 | Heartbeat (72 h) (zebrafish embryos [2]; 72 h, 0.01 mg/L): 125 ± 2.16 per min | Unhatching number (72 h) (zebrafish embryos [2]; 72 h, 0.01 mg/L): 5 | Body length (72 h) (zebrafish embryos [2]; 72 h, 0.1 mg/L): 3.88 ± 0.15 mm | Hatching number (72 h) (zebrafish embryos [2]; 72 h, 0.1 mg/L): 22 | Heartbeat (72 h) (zebrafish embryos [2]; 72 h, 0.1 mg/L): 124 ± 2.25 per min | Unhatching number (72 h) (zebrafish embryos [2]; 72 h, 0.1 mg/L): 8 | Body length (72 h) (zebrafish embryos [2]; 72 h, 1 mg/L): 3.97 ± 0.08 mm | Hatching number (72 h) (zebrafish embryos [2]; 72 h, 1 mg/L): 17 | Heartbeat (72 h) (zebrafish embryos [2]; 72 h, 1 mg/L): 124 ± 1.67 per min | Unhatching number (72 h) (zebrafish embryos [2]; 72 h, 1 mg/L): 11 | hatching rate (zebrafish embryos [2]; 72 h, 1 mg/L): 56.7% | Hatching number (72 h) (zebrafish embryos [2]; 72 h, 10 mg/L): 0 | Unhatching number (72 h) (zebrafish embryos [2]; 72 h, 10 mg/L): 0 | hatching rate (zebrafish embryos [2]; 72 h, 10 mg/L): 0% | Hatching number (72 h) (zebrafish embryos [2]; 72 h, 100 mg/L): 0 | Unhatching number (72 h) (zebrafish embryos [2]; 72 h, 100 mg/L): 0 | Body length (72 h) (zebrafish embryos [3]; 0.1 mg/L): 3.94 ± 0.14 mm | Heartbeat (72 h) (zebrafish embryos [3]; 0.1 mg/L): 125 ± 2.40 per min | Death number (72 h) (zebrafish embryos [3]; 0.1 mg/L): 8 | Hatching number (72 h) (zebrafish embryos [3]; 0.1 mg/L): 22 | Unhatching number (72 h) (zebrafish embryos [3]; 0.1 mg/L): 0 | Body length (72 h) (zebrafish embryos [3]; 0.3 mg/L): 3.95 ± 0.09 mm | Heartbeat (72 h) (zebrafish embryos [3]; 0.3 mg/L): 125 ± 2.48 per min | Death number (72 h) (zebrafish embryos [3]; 0.3 mg/L): 8 | Hatching number (72 h) (zebrafish embryos [3]; 0.3 mg/L): 20 | Unhatching number (72 h) (zebrafish embryos [3]; 0.3 mg/L): 2 | Body length (72 h) (zebrafish embryos [3]; 1 mg/L): 3.77 ± 0.18 mm | Heartbeat (72 h) (zebrafish embryos [3]; 1 mg/L): 126 ± 2.56 per min | hatching rate (zebrafish embryos [3]; 1 mg/L, 72 h): 56.67% | Death number (72 h) (zebrafish embryos [3]; 1 mg/L): 13 | Hatching number (72 h) (zebrafish embryos [3]; 1 mg/L): 17 | Unhatching number (72 h) (zebrafish embryos [3]; 1 mg/L): 0 | Death number (72 h) (zebrafish embryos [3]; 3 mg/L): 28 | Hatching number (72 h) (zebrafish embryos [3]; 3 mg/L): 0 | Unhatching number (72 h) (zebrafish embryos [3]; 3 mg/L): 2 | Death number (72 h) (zebrafish embryos [3]; 10 mg/L): 30 | Hatching number (72 h) (zebrafish embryos [3]; 10 mg/L): 0 | Unhatching number (72 h) (zebrafish embryos [3]; 10 mg/L): 0

COc1ccc2c(c1)c(CC(=O)O)c(C)n2C(=O)c1ccc(Cl)cc1 [indometacin, reference compound]
Foot swelling degree after inflammation ([1]; 6 h): 0.57 ± 0.16^c mL | Foot swelling degree after inflammation ([1]; 12 h): 0.96 ± 0.21^c mL | Foot swelling degree after inflammation ([1]; 18 h): 1.32 ± 0.22^b mL | Foot swelling degree after inflammation ([1]; 24 h): 1.08 ± 0.26^c mL
